Source: BindingDB's records for patent US11352330 (Hoffmann-La Roche, 2022)

Target: Autotaxin (Homo sapiens, UniProt Q13822)
Assay: Human ATX Enzyme Inhibition Assay
Protocol: Assay working solutions were made as follows:Assay buffer (50 mM Tris-HCl, 140 mM NaCl, 5 mM KCl, 1 mM CaCl2, 1 mM MgCl2, 0.01% Triton-X-100, pH 8.0;ATX solution: ATX (human His-tagged) stock solution (1.08 mg/mL in 20 mM bicine, pH 8.5, 0.15 M NaCl, 10% glycerol, 0.3% CHAPS, 0.02% NaN3), diluted to 1.4-2.5× final concentration in assay buffer;MR121 substrate solution: MR121 substrate stock solution (800 μM MR121 substrate in DMSO), diluted to 2-5× final concentration in assay buffer.Test compounds (10 mM stock in DMSO, 8 μL) were obtained in 384 well sample plates (Corning Costar #3655) and diluted with 8 μL DMSO. Row-wise serial dilutions were made by transferring 8 μL cpd solution to the next row up to row O. The compound and control solutions were mixed five times and 2 μL were transferred to 384 well assay plates (Corning Costar #3702). Then, 15 μL of 41.7 nM ATX solution was added (30 nM final concentration), mixed five times and then incubated for 15 minutes at 30° C. 10 μL of MR121 substrate solution was added (1 μM final concentration), mixed 30 times and then incubated for 15 minutes at 30° C.

IC50: 15 nM
SMILES: COc1ccccc1-c1cc(Cl)c(C)cc1OCc1n[nH]c(=O)n1C [US11352330, Example B56]
